In the supplement of paper PMC10307832:

Experiments:
Assay in all cases: relative viability (nuclei count vs DMSO), 5 days (fraction); higher = more cells survive
[1] = compound: C1/C(=C\C2=CC=CS2)/C(=O)/C(=C/C3=CC=CS3)/C1 + CS(=O)(=O)CCNCc1ccc(-c2ccc3ncnc(Nc4ccc(OCc5cccc(F)c5)c(Cl)c4)c3c2)o1 [Lapatinib] (partner 2 µM)
Outline: (§1)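 Nuclei were stained with Hoechst during a one-step fixation (final 0.05% Triton X-100, 1% formaldehyde, 1 ug/ml Hoechst) carried out 5 days after dosing, then counted on 4× images. The cells, lung cancer lines in 1536-well plates, had been dosed by pin tool the day after seeding with one drug alone or a fixed anchor-drug dose plus five library-drug doses (not always all listed) in √10 steps. Relative viability is the nuclei count in treated wells divided by that in vehicle wells, and each value is the median of duplicate plates.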

[2] = compound: C1/C(=C\C2=CC=CS2)/C(=O)/C(=C/C3=CC=CS3)/C1 + CCNC(=O)c1noc(-c2cc(C(C)C)c(O)cc2O)c1-c1ccc(CN2CCOCC2)cc1 [Luminespib] (partner 0.01 µM)
Outline: as §1

[3] = compound: C[C@]12O[C@H](C[C@]1(O)CO)n1c3ccccc3c3c4c(c5c6ccccc6n2c5c31)CNC4=O [Lestaurtinib] + COc1cccc2cc(-c3nc([C@H]4CC[C@H](C(=O)O)CC4)n4ncnc(N)c34)[nH]c12 [OSI-027] (partner 0.5 µM)
Outline: as §1

[4] = compound: C1=CC(=CC=C1C2=CC(=C(S2)NC(=O)N)C(=O)N)F [TPCA-1] + CC1(C)CCC(c2ccc(Cl)cc2)=C(CN2CCN(c3ccc(C(=O)NS(=O)(=O)c4ccc(N[C@H](CCN5CCOCC5)CSc5ccccc5)c(S(=O)(=O)C(F)(F)F)c4)cc3)CC2)C1 [Navitoclax] (partner 0.5 µM)
Outline: as §1

Cell Line	relative viability ([1]; first compound 0.2 µM)	relative viability ([1]; first compound 0.6325 µM)	relative viability ([1]; first compound 2 µM)	relative viability ([1]; first compound 6.325 µM)	relative viability ([1]; first compound 20 µM)	relative viability ([2]; first compound 0.2 µM)	relative viability ([2]; first compound 0.6325 µM)	relative viability ([2]; first compound 2 µM)	relative viability ([2]; first compound 6.325 µM)	relative viability ([2]; first compound 20 µM)	relative viability ([3]; first compound 0.005 µM)	relative viability ([3]; first compound 0.01581 µM)	relative viability ([3]; first compound 0.05 µM)	relative viability ([3]; first compound 0.1581 µM)	relative viability ([3]; first compound 0.5 µM)	relative viability ([4]; first compound 0.04 µM)	relative viability ([4]; first compound 0.1265 µM)	relative viability ([4]; first compound 0.4 µM)	relative viability ([4]; first compound 1.265 µM)	relative viability ([4]; first compound 4 µM)
NCI-H1563	0.996	0.903	0.97	0.953	0.955	0.567	0.511	0.552	0.534	0.492	0.724	0.755	0.757	0.777	0.734	–	–	–	–	–
NCI-H1648	–	–	–	–	–	–	–	–	–	–	0.233	0.271	0.285	0.246	0.261	–	–	–	–	–
NCI-H1299	1.04	0.951	0.909	0.939	0.995	–	–	–	–	–	–	–	–	–	–	1.08	1.02	1.02	1.04	1.07
A549	1.04	0.957	1.05	0.932	0.902	–	–	–	–	–	–	–	–	–	–	1.29	1.2	1.17	1.29	0.777
NCI-H1623	–	–	–	–	–	0.672	0.601	0.528	0.372	0.511	0.4	0.412	0.428	0.399	0.398	–	–	–	–	–
NCI-H1703	1.21	1.21	1.18	1.1	1.11	–	–	–	–	–	–	–	–	–	–	1.18	0.955	1.12	0.774	0.807
HCC-78	0.759	0.828	1.1	0.562	0.814	–	–	–	–	–	0.34	0.417	0.323	0.381	0.29	0.973	0.653	0.726	0.652	0.582
NCI-H661	0.465	0.49	0.507	0.475	0.516	0.942	0.964	0.934	0.843	0.929	0.623	0.736	0.405	0.589	0.372	–	–	–	–	–
NCI-H522	–	–	–	–	–	1.13	0.991	1.32	1.12	1.07	0.816	0.791	0.679	0.709	0.572	–	–	–	–	–
Calu-6	1.02	1.03	0.981	0.991	0.986	–	–	–	–	–	–	–	–	–	–	0.893	0.795	0.888	0.726	0.394
ChaGo-K-1	–	–	–	–	–	0.62	0.652	0.45	0.295	0.22	0.608	0.626	0.5	0.376	0.373	0.959	0.927	1.13	0.98	0.406
LCLC-103H	–	–	–	–	–	1.05	0.901	1.07	0.936	0.989	0.442	0.49	0.349	0.385	0.286	–	–	–	–	–
NCI-H441	–	–	–	–	–	0.331	0.377	0.343	0.37	0.345	0.597	0.589	0.279	0.342	0.303	0.604	0.405	0.736	0.578	0.297
